# US6635668B1, “Imidazoline receptor binding compounds” (The University of North Carolina at Chapel Hill, priority 1998, dated 2003)
# “Also recorded” adds a separate entry of the source. Structures can show the parent of a compound that is named as a salt.
# Experiments:
# imidazoline receptor = experiment: Imidazoline receptor binding (Tables 2 and 3); conditions: Table 2
# imidazoline I2 sites [1] = experiment: Competition binding of 5 nM [3H]idazoxan to rat liver membranes; conditions: for Ki: 5 nM [3H]idazoxan (Kd 14 ± 2 nM), mean ± SD, compounds 4 and 8 mean ± 95% confidence intervals; for Hill Slope: inhibition of [3H]idazoxan binding
# Description: Membrane preparation. Membranes were prepared in accordance with known techniques (R. Zonnenchein et al., Eur. J. Pharmacol. 190, 203-215 (1990)). […] The livers were weighed and minced with scissors before being homogenized at 4° C. in solution A (0.25 M sucrose containing 0.1 mM phenylmethyl sulfonyl fluoride 1:10 v/v) for 1 min using a Biospec homogenizer (Bartlesville, Okla., USA). The homogenate was centrifuged at 600×g for 10 min at 4° C. The resulting pellet was washed with solution A, discarded and the supernatant fractions were combined and centrifuged at 12,000×g for 30 min. This pellet was washed then resuspended in cold buffer B (50 mM Tris/HCl pH 7.4). Using a Bio-Rad (Hercules, Calif., USA) assay kit, the protein concentration was determined using bovine serum albumin as the standard according to the assay of Bradford et al. (Bradford, M. M., 1976. Anal. Biochem. 72, 248-254.). The preparation was stored at −80° C. at a concentration of 20 mg protein/ml. Competition binding studies. Competition experiments were performed in 1 ml buffer B containing 5 nM [^3H]idazoxan. […] In all experiments, bound and free radioligand were separated by vacuum filtration through Whatman GF/C filters and washed with 2×10 ml cold buffer B. Radioactivity on filters was determined by liquid scintillation spectroscopy using a Packard Tri-Carb 2100TR. […] Data analysis. Binding analyses, statistics and graphics were performed using Prism 2.01 (Graphpad Software, Inc., San Diego, Calif., USA). […] The calculated log of the octanol:water partition coefficient (ClogP) was calculated using MedChem Software 3.5 (Daylight Chemical Information Systems, New Orleans, La., USA).
# Pneumocystis carinii = experiment: Anti-Pneumocystis carinii activity, P. carinii pneumonia in the rat; assay type: in vivo; conditions: for anti-P. carinii activity (in words): rat, compared with pentamidine
# Description: Anti-Pneumocystis carinii activity. Induction, treatment and evaluation of P. carinii pneumonia in the rat was carried out according to methods described previously (Jones, S. K. et al., Antimicrob. Agents Chemother. 34, 1026-1030 (1990)). To summarize the scoring procedure, the mean histologic scores were determined by two examiners using a blinded protocol. P. carinii cysts were counted in the stained lung sections and assigned the following values; 0.5—less than 10 cysts counted per two fully examined sections; 1—scattered cysts with less than 10% of the lung tissue involved; 2—scattered cysts with limited intense focal involvement and 10 to 25% of lung tissue involved; 3—scattered cysts with numerous intense areas of focal involvement and 26 to 50% of lung tissue involved; 4—cysts found throughout the tissue with numerous intense focal areas of involvement having greater than 50% of lung tissue involved.
# imidazoline I2 sites [2] = experiment: [3H]Idazoxan saturation binding in rat liver membranes; conditions: 22° C., 45 min, read-out: Kd for saturable binding
# Description: Membrane preparation. Membranes were prepared in accordance with known techniques (R. Zonnenchein et al., Eur. J. Pharmacol. 190, 203-215 (1990)). Briefly, male Sprague-Dawley rats (Hilltop, Scottsdale, Pa., USA) weighing approximately 250-300 g were decapitated, their livers rapidly removed and immediately placed into 0.25 M cold sucrose solution. The livers were weighed and minced with scissors before being homogenized at 4° C. in solution A (0.25 M sucrose containing 0.1 mM phenylmethyl sulfonyl fluoride 1:10 v/v) for 1 min using a Biospec homogenizer (Bartlesville, Okla., USA). The homogenate was centrifuged at 600×g for 10 min at 4° C. The resulting pellet was washed with solution A, discarded and the supernatant fractions were combined and centrifuged at 12,000×g for 30 min. This pellet was washed then resuspended in cold buffer B (50 mM Tris/HCl pH 7.4). Using a Bio-Rad (Hercules, Calif., USA) assay kit, the protein concentration was determined using bovine serum albumin as the standard according to the assay of Bradford et al. (Bradford, M. M., 1976. Anal. Biochem. 72, 248-254.). The preparation was stored at −80° C. at a concentration of 20 mg protein/ml. Saturation binding studies. Binding studies were performed in triplicate in 1 ml buffer B containing [^3H]idazoxan (0.1-50 nM). […]
Ki (imidazoline receptor) [nM],Ki (imidazoline I2 sites [1]) [nM],Hill Slope (imidazoline I2 sites [1]),SMILES,also measured
44800,,,c1cc2[nH]c(CCCCc3nc4cc(C5=NCCN5)ccc4[nH]3)nc2cc1C1=NCCN1 [BIBB],
,3 ± 0.4,,"c1ccc(C2CC2)c(OCC2=NCCN2)c1 [Cirazoline, cirazoline, reference compound]",
,4.3 ± 1.09,−0.8,c1cc(C2=NCCN2)ccc1OCCCCCOc1ccc(C2=NCCN2)cc1 [Compound 3],anti-P. carinii activity (in words) (Pneumocystis carinii): greater than pentamidine
,50.1 ± 1.06,−0.9,COc1cc(C2=NCCN2)ccc1OCCCOc1ccc(C2=NCCN2)cc1OC [Compound 5],anti-P. carinii activity (in words) (Pneumocystis carinii): greater than pentamidine; also recorded: equally effective
18100,,,N=C(N)c1ccc2c(c1)[nH]c1cc(C(=N)N)ccc12 [DAP 092],
630,,,c1cc(-c2ccc(-c3ccc(C4=NCCN4)cc3)o2)ccc1C1=NCCN1 [DB 60],
236,,,c1cc(-c2ccc(-c3ccc(C4=NCCCN4)cc3)o2)ccc1C1=NCCCN1 [DB 103],
65600,,,N=C(N)c1ccc2[nH]c(-c3ccc4[nH]c(-c5ccc(O)cc5)nc4c3)nc2c1 [DB 183],
3780,,,N=C(N)c1ccc(-c2ccc(-c3ccc(C(=N)N)cc3)[nH]2)cc1 [DB 262],
111,,,N=C(N)c1ccc(-c2ccc(-c3ccc(C(=N)N)cc3)s2)cc1 [DB 351],
,> 5000,,"Cc1ccc(N(CC2=NCCN2)c2cccc(O)c2)cc1 [Phentolamine, phentolamine, reference compound]",

# Further lines, the compound ahead of its results:
SMILES,Ki (imidazoline receptor) [nM],Ki (imidazoline I2 sites [1]) [nM],Hill Slope (imidazoline I2 sites [1]),also measured
N=C(N)c1cccc(OCCCCCOc2cccc(C(=N)N)c2)c1 [001 KAO 011],158,,,
N=C(N)c1ccc2[nH]c3ccc(C(=N)N)cc3c2c1 [003 KAO 111],44700,,,
N=C(N)c1ccc2[nH]c(CCCCc3nc4cc(C(=N)N)ccc4[nH]3)nc2c1 [BABB],5530,,,
N=C(N)c1ccc2[nH]c(Cc3nc4cc(C(=N)N)ccc4[nH]3)nc2c1 [BABIM],7510,,,
"N=C(N)c1ccc(OCCCCCOc2ccc(C(=N)N)cc2)cc1 [Compound 1, pentamidine, reference compound]",,1.4 ± 0.22,−0.8,"mean histologic score (Pneumocystis carinii; rat lung sections, saline control 3.8 out of a possible 4.0): 1.3"
N=C(N)c1ccc(OCCCCCCOc2ccc(C(=N)N)cc2)cc1 [Compound 2],,3.2 ± 0.36,−1.2,anti-P. carinii activity (in words) (Pneumocystis carinii): greater than pentamidine
N=C(N)c1ccc(OCCCCOc2ccc(C(=N)N)cc2)cc1 [Compound 4],,,−0.8,anti-P. carinii activity (in words) (Pneumocystis carinii): greater than pentamidine
COc1cc(C(=N)N)ccc1OCCCOc1ccc(C(=N)N)cc1OC [Compound 6],,~3500,−0.9,anti-P. carinii activity (in words) (Pneumocystis carinii): greater than pentamidine; also recorded: equally effective
N=C(N)c1ccc(OCCCOc2ccc(C(=N)N)cc2)cc1 [Compound 7],,,−0.8,
N=C(N)c1ccc(OCCCCCOc2ccc([N+](=O)[O-])cc2)cc1 [Compound 8],,62 ± 25,−0.8,
N=C(N)c1ccc(OCCCCCO)cc1 [Compound 9],,319 ± 39.5,−0.8,anti-P. carinii activity (in words) (Pneumocystis carinii): no activity at all
"COc1ccc(C(=N)N)cc1 [Compound 10, 4-methoxybenzamidine]",,228 ± 36.5,−0.8,
"N=C(N)c1ccc(O)cc1 [Compound 11, 4-hydroxybenzamidine]",,~30000,−0.3,anti-P. carinii activity (in words) (Pneumocystis carinii): no activity at all
"N=C(N)c1ccccc1 [Compound 12, benzamidine]",,580 ± 61.3,−0.8,
N=C(N)c1ccc(-c2ccc(-c3ccc(C(=N)N)cc3)o2)cc1 [DB 75],653,,,
CC(C)NC(=N)c1ccc(-c2ccc(-c3ccc(C(=N)NC(C)C)cc3)o2)cc1 [DB 181],5500,,,
N=C(N)c1ccc2nc(C3=CCC=C(c4nc5ccc(C(=N)N)cc5[nH]4)N3)[nH]c2c1 [DB 205],347000,,,
N=C(NC1CCCC1)c1ccc(-c2ccc(-c3ccc(C(=N)NC4CCCC4)cc3)o2)cc1 [DB 244],6760,,,
"[3H]c1cc2c(cc1[3H])OC(C1=NCCN1)CO2 (stereo not drawn) [[^3H]idazoxan, (1,4-[6,7-^3H]-benzodioxan-2-yl)-2-imidazoline hydrochloride]",,,,Kd (imidazoline I2 sites [2]): 14 ± 2 nM
